Reference: PMC11802738 (Nature Communications, 2025)

What was measured:
[1] = biological target: T1, RgNanH (GRAB-Sia3 = RgNanH D282A) (Mediterraneibacter gnavus, UniProt A7B557, D282A); test: isothermal titration calorimetry; type: binding; conditions: PBS; 50 μM protein in cell, 1 mM ligand in syringe; monomeric GRAB-Sia3
T1 sequence (A7B557 243-723 D282A): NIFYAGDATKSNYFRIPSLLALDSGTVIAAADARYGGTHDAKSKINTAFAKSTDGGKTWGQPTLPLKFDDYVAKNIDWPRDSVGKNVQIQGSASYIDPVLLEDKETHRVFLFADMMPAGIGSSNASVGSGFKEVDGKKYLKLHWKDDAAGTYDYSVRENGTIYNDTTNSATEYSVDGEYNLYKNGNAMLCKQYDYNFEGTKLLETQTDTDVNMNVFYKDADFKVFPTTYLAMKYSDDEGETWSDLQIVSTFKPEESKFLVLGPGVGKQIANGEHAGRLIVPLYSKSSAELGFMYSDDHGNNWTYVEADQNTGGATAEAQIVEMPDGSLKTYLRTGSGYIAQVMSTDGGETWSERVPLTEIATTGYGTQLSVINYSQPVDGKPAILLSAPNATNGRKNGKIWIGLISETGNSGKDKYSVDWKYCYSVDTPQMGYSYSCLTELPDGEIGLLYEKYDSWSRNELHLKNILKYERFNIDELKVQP

[2] = biological target: SpNanA (GRAB-Sia = SpNanA D372N) (Streptococcus pneumoniae, UniProt P62576, D372N); conditions: PBS; 50 μM protein in cell, 1 mM ligand in syringe; monomeric GRAB-Sia

Row | Compound | Kd [1] | Kd [2]
1 | CC(=O)N[C@H]1[C@H]([C@H](O)[C@H](O)CO)O[C@@](O[C@H]2[C@@H](O)[C@@H](CO)O[C@@H](O[C@H]3[C@H](O)[C@@H](O)C(O)O[C@@H]3CO)[C@@H]2O)(C(=O)O)C[C@@H]1O (stereo partly drawn) [3′SL] | 7.15 µM | 17.8 µM
2 | CC(=O)N[C@H]1[C@H]([C@H](O)[C@H](O)CO)O[C@@](OC[C@H]2O[C@@H](O[C@H]3[C@H](O)[C@@H](O)C(O)O[C@@H]3CO)[C@H](O)[C@@H](O)[C@H]2O)(C(=O)O)C[C@@H]1O (stereo partly drawn) [6′SL] |  | 19.1 µM
